The values that follow come from US12569498B2, “Methods and compositions for the prevention and treatment of ischemia reperfusion injury and infection” (CHILDREN'S NATIONAL MEDICAL CENTER, priority 2019, dated 2026).

Molecules are shown by their SMILES. Entries after “also recorded” stand apart in the source; their conditions may differ.

A short description of data set [1]: Masson trichrome staining and ImageJ quantification of collagen in testis 30 days after torsion. It is filed as in vivo, CD1 mice. As to conditions: 30 days following torsion, vs untreated, cytisine p<0.01, varenicline p<0.0001. As to the method:
(§1) Mice underwent testicular torsion as previously described (Lysiak 2001). Briefly, mice were anesthetized with isoflurane over a heating pad. The right testis was delivered through a low scrotal incision and rotated counterclockwise 720 degrees to induce ischemia for 2 hours. […] All animals were injected with long-acting buprenorphine (0.1 mg/kg) for long-term pain control prior to being recovered from anesthesia. Mice were euthanized either 18 hours or 30 days following torsion. Mice kept for 30 days after surgery were weighed on a weekly basis.
(§2) Cytisine (Sigma-Aldrich, St. Louis, MO) was administered intraperitoneally at a dose of 0.1 μg/gram either 1 hour before torsion or 1 hour after torsion (1 hour prior to detorsion). Varenicline ([…]) was administered as an intraperitoneal injection one hour after the onset of torsion and then continued every 12 hours for a total of 4 doses.
Testis tissue was harvested and stored in 70% ethanol. Fixation, embedding, sectioning, and staining were performed by the research pathology core at George Washington University. Sections were cut at a thickness of […]. Tissues were stained for H&E or Masson trichrome. Photographs were scanned at 20× resolution with Olympus VS120 virtual slide microscope system. TIF images were analyzed with ImageJ Fiji software as previously described (Caetano, Fronza et al. 2016). The color deconvolution plugin was used to perform ImageJ analysis on an area measuring 3000 square pixels. Automatic thresholding was performed. The amount of collagen in each area is expressed as the percentage of blue pixels in the image area taken as an average of 3 non-overlapping measurements.

A short description of data set [2]: Testis weight vs contralateral testis 30 days after torsion (testicular atrophy). As to conditions: drug given an hour after the onset of torsion; 30 days after reperfusion; vs untreated. The data set is classed as in vivo, CD1 mice. As to the method: Unilateral testicular torsion was induced in mature male CD1 mice by rotating the right testicle 720 degrees for 2 hours. Treatment with cytisine or varenicline was initiated one hour prior or one hour after the creation of testicular torsion. Testes were harvested 18 hours and 30 days following reperfusion. The acute inflammatory response was quantified with FACS analysis, […], reduced glutathione levels and quantification of the expression of IRI markers. Long term (30 day) outcomes were assessed by histologic evaluation, quantification of the expression of pro-fibrotic genes and measurement of testicular weight.
as §1, §2
The degree of testicular atrophy was determined by comparing the weight of the torsed testis to the contralateral control testis 30 days after reperfusion.

Data set [3] is described as follows: Warm ischemia of the hindlimb (flow cytometry, quantitative PCR, trichrome staining). The data set is classed as in vivo. As to conditions: vs untreated controls.
The test system of data set [4] is IRI markers and pro-fibrotic genes in kidney after CFT073 uropathogenic Escherichia coli pyelonephritis. Description: Quantitative PCR of kidney after acute pyelonephritis (IRI markers, pro-fibrotic genes). It is filed as in vivo, C3H/HeOuJ mice. The protocol: Methods: Using an established murine model, pyelonephritis was induced by inoculating the bladder of C3H/HeOuJ mice with a uropathogenic E. coli. Five days following inoculation, half of the animals were treated with 5 days of ceftriaxone and half were treated with 5 days of ceftriaxone plus varenicline in the initial 48 hours. Histology and the expression of ischemia reperfusion injury markers and pro-fibrotic genes were evaluated at 14 and 30 days following the initial infection.
To initiate pyelonephritis, the bladder was catheterized with a 24-gauge angiocatheter and a total volume of 100 μL of a phosphate-buffered saline containing […] colony forming units (CFU) of CFT073 uropathogenic Escherichia coli (UPEC) was then instilled.
[…] Real-time PCR was performed using QuantStudio 7 Flex (Applied Biosystems, Foster City, CA) with Software Quantstudio Real-Time PCR Software (Thermo Fisher Scientific, Waltham, MA) and TaqMan Gene Expression Assays (Applied Biosystems, Foster City, CA). Standard TaqMan primers were used for Complement 1 q B chain (C1qb, Mm01179619_m1), Lipocalin 2 (Lcn2, Mm01324470_m1), Serpina (Mm04213318_m1), Cathepsin S (Ctss, Mm01255859_m1), Vascular cell adhesion molecule 1 (Vcam1, Mm01320970_m1), Interleukin 1 beta (IL-1β, Mm00434228_m1), and Nitric oxide synthase 2 (Nos2, Mm00440502_m1) as short-term IRI markers and Collagen 1 (Col1, Mm00801666_g1), Collagen 3 (Col3, Mm01254476_m1), Vimentin (Vim, Mm01333430_m1), and Smooth muscle actin (Acta, Mm00725412_s1) to evaluate long-term fibrosis.

Another data set deals with α7nAChR (Homo sapiens, UniProt P36544). Particulars: peak concentrations in smokers / levels with therapeutic dosing in humans (Campling 2013); cited from earlier work.
Chain of α7nAChR (P36544 23-502): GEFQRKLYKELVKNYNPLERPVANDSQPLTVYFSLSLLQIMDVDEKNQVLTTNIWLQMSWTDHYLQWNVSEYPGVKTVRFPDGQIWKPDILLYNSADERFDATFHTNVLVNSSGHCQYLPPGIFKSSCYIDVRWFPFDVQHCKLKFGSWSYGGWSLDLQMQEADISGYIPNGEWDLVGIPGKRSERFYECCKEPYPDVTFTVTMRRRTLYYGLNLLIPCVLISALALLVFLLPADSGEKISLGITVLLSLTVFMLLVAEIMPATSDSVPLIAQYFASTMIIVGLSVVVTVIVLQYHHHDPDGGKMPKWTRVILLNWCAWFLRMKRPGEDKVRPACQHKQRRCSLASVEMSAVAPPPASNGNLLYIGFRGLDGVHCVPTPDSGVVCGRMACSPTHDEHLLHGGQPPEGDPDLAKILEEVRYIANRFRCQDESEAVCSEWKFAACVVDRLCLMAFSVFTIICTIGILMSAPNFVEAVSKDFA
Data set [5] deals with pro-fibrotic genes Col1, Col3, Vim, SMA. Briefly: RT-PCR of pro-fibrotic markers in testis 30 days after torsion. The data set is classed as in vivo, CD1 mice. Particulars: for relative expression of collagen 1 (Col1) / relative expression of collagen 3 (Col3) / relative expression of smooth muscle actin (Sma) / relative expression of vimentin (Vim): 30 days following torsion, vs untreated. As to the method:
as §1, §2
RNA was isolated from testis tissue using RNEasy mini kit (Qiagen, Hilden, Germany) using the manufacturer's protocol. RNA concentration was measured with Nanodrop 8000 (Thermo Scientific, Waltham, MA). cDNA was synthesized using Superscript First-Strand Synthesis system for RT-PCR (Invitrogen, Carlsbad, CA) on a GeneAmp PCR System 9700 (Applied Biosystems, Foster City, CA) Real-Real-time PCR was performed using QuantStudio 7 Flex (Applied Biosystems, Foster City, CA). Software Quantstudio Real-Time PCR Software (Thermo Fisher Scientific, Waltham, MA). TaqMan Gene Expression Assays (Applied Biosystems, Foster City, CA). Standard TaqMan primers were used for Col1, Col3, Vim, SMA.

The conditions of data set [6]: cited from earlier work.
Where [7] appears, read: adolescents aged 12-16, of 75 patients (Faessel 2009).

As to `c1cnc2cc3c(cc2n1)C1CNCC3C1` [varenicline, 7,8,9, 10-tetrahydro-6, 10-methano-6H-pyrazino[2,3-h][3]benzazepine], the “collagen content of testis (trichrome staining, percentage of collagen)” value in data set [1] was “untreated group had significantly higher collagen content; also recorded: decreased histologic and genetic markers of testicular fibrosis”. Besides, the “collagen content of testis (trichrome staining, percentage of collagen)” value in data set [1] (listed as Varenicline) was “significantly higher percentage of collagen in the untreated animals”. For the same compound, the “testicular atrophy (weight of torsed testis vs contralateral control testis)” value in data set [2] is recorded as “limited long term testicular atrophy; also recorded: preserved testicular weight”. Further, the “infiltration of leukocytes (flow cytometry)” value in data set [3] (24 hours after warm ischemia of the hindlimb, P≤0.01) was “decreased infiltration of leukocytes”. Moreover, the “expression of pro-fibrotic genes (quantitative PCR)” value in data set [3] (7 days after reperfusion of the limb) is reported as “decreased expression of pro-fibrotic genes”. For the same compound, the “collagen deposition in muscle fibers (trichrome staining)” value in data set [3] (14 days following limb ischemia, P≤0.005) is recorded as “significant decrease in collagen deposition”. Moreover, the “expression of established mediators (markers) of renal ischemia reperfusion injury” value in data set [4] (14 days after inoculation, 5 days after completion of antibiotics, varenicline 1 mg/kg i.p. twice daily first 48 hours plus ceftriaxone vs ceftriaxone alone, difference not statistically significant) is reported as “decreased expression of IRI markers”. Besides, in data set [4] (30 days following inoculation, 21 days after completion of antibiotics, varenicline plus ceftriaxone vs ceftriaxone alone), the “expression of pro-fibrotic genes (Col1, Col3, acta, vimentin) in kidney” value is on record as “trend towards a decreased expression of pro-fibrotic genes; also recorded: long-term decrease; also recorded: decrease in expression of genes responsible for renal fibrosis”. In addition, in data set [4] (kidneys at 30 days, p-value of 0.03), the “expression of vimentin in kidney” value was “Decrease in expression of vimentin”. At α7nAChR, the “activation of α7nAChR at clinically reached concentrations” value was “α7nAChR agonist at concentrations found with therapeutic dosing in humans; also recorded: strong α4β2nAChR and α7nAChR agonist”. In data set [5], the “relative expression of collagen 1 (Col1)” value was “reduced the expression; also recorded: significantly decreased”, the “relative expression of collagen 3 (Col3)” value is recorded as “reduced the expression; also recorded: significantly decreased”, the “relative expression of smooth muscle actin (Sma)” value is given as “reduced the expression; also recorded: significantly decreased” and the “relative expression of vimentin (Vim)” value is listed as “reduced the expression; also recorded: significantly decreased”. Moreover, in data set [5] (listed as Varenicline), the “relative expression of collagen 1 (Col1)” value is “significantly decreased”, the “relative expression of collagen 3 (Col3)” value is recorded as “significantly decreased”, the “relative expression of smooth muscle actin (Sma)” value is “significantly decreased” and the “relative expression of vimentin (Vim)” value was “significantly decreased”. Moreover, in data set [5] (long term (30 day) outcome, genes not itemised), the “expression of pro-fibrotic genes / genetic markers of testicular fibrosis” value is “decreased histologic and genetic markers of testicular fibrosis”. The “incidence of neurocognitive side effects” value in data set [6] (adolescents aged 12-16 (Faessel 2009)) is 3 out of 75. In data set [6] (setting [7]), the abnormal dreams is 2 patients and the transient mild anger is 1 patient.
